Test results published in patent publication US20250345439A1, “CHONDROITIN SULFATE BIOGENIC POLYAMINE COMPLEX, PREPARATION METHOD THEREOF AND USE THEREOF” (priority 2022, published 2025).

Tested on: rat rheumatoid arthritis model
[1] = venous blood, day 14 after administration

CN(Cc1cnc2nc(N)nc(N)c2n1)c1ccc(C(=O)N[C@@H](CCC(=O)O)C(=O)O)cc1 [MTX, methotrexate]
degrees of swelling in the toes of rats (CSX of Example 2 200 mg/kg gavage daily, MTX 0.2 mg/kg gavage every other day): showed the desired effect of inhibiting toe swelling
CT of ankle joint parts of rats (CSX of Example 2, MTX positive control): the degree of joint injury was more serious than that in the rats of the drug group (CSX)
bone surface (BS) of the ankle joint (CT): decreased significantly
absolute leukocyte count vs model group [1]: no statistical difference
absolute lymphocyte count vs model group [1]: significantly decreased
absolute neutrophil count vs model group [1]: significantly decreased
